Results published in the NIST ThermoML archive (doi:10.1016/j.tca.2007.01.009).

Assay: wn = mass fraction of the nth substance listed
Conditions: 101 kPa, Crystal, Hot wire method

[Pb] [lead] + [Cd]
thermal conductivity [W/m/K]
Conditions | 323.15 K | 373.15 K | 423.15 K | 473.15 K | 513.15 K
w2 = 0.033 | 38.36 | 35.94 | 30.79 | 30.37 | 27.68
w2 = 0.174 | 62.77 | 53.14 | 44.49 | 39.96 | 37.25
w2 = 0.9975 | 105.18 | 86.06 | 71.06 | 69.38 | 61.22

[Zn] [zinc] + [Sn]
thermal conductivity [W/m/K]
Conditions | 323.15 K | 373.1 K | 423.15 K | 463.15 K
w1 = 0.01 | 78.49 | 73.59 | 66.89 | 71.08
w1 = 0.089 | 86.39 | 81.42 | 79.04 | 75.42
